{"source": "patent US4582847A", "about": "“4-chloro-2-phenylimidazole-5-acetic acid derivatives and use as diuretics and hypotensives” (Takeda Chemical Industries, Ltd., priority 1983, dated 1986)", "key": {"[1]": {"tested_on": "rats", "assay": "Diuretic action in rats (method of W. L. Lipschitz)", "type": "in vivo", "conditions": "rat, 30 mg/kg P.O., n = 6; control group = 1.00", "method": "(§1) The test was conducted in rats and dogs, in accordance with the method of W. L. Lipschitz. The numerals in the table denote the values for the treated groups with the value for control group being taken as 1.00. [formula]"}, "[2]": {"tested_on": "Angiotensin II (rabbit aortic vessel)", "assay": "Angiotensin II-antagonizing activity (rabbit aortic vessel)", "conditions": "AII 4×10^-9 M, 15 min treatment", "method": "Angiotensin II (briefly, AII)-antagonizing activity of the compound (I) of this invention (rabbit aortic vessel)\nThe method of preparing the aortic vessel specimens and the reaction conditions employed were as described in European Journal of Pharmacology 18, 316 (1972). AII was used in a concentration of 4×10^-9 M, and the change in isometric tension of the untreated vessel specimen was measured as control. As a test, the vessel was treated with the test compound for 15 minutes and a similar determination was made. The two results were compared and the inhibition rate was calculated by means of the following formula.\nInhibition rate (%) [formula]"}, "[3]": {"tested_on": "dogs", "assay": "Diuretic action in dogs (method of W. L. Lipschitz)", "type": "in vivo", "conditions": "dog, n = 3, control group = 1.00", "method": "as §1"}, "[4]": {"tested_on": "dogs with renal hypertension", "assay": "Antihypertensive action in dogs with renal hypertension", "type": "in vivo, beagle dog", "conditions": "dose 10 mg, oral; for Diastolic blood pressure after 1 hr. / Systolic blood pressure after 1 hr.: 1 hr after administration; for Diastolic blood pressure after 2 hrs. / Systolic blood pressure after 2 hrs.: 2 hrs after administration; for Diastolic blood pressure after 4 hrs. / Systolic blood pressure after 4 hrs.: 4 hrs after administration; for Diastolic blood pressure after 8 hrs. / Systolic blood pressure after 8 hrs.: 8 hrs after administration; for Diastolic blood pressure before administration / Systolic blood pressure before administration: before administration (baseline)", "from_the_text": "Antihypertensive action in dogs with renal hypertension\nMale adult beagle dogs were laparotomized under pentobarbital anesthesia and the left renal artery was constricted with a silver clip so as to reduce the renal blood flow to about 30%. After the operation, the animals were kept for at least 2 months and the individuals having a systolic pressure of at least about 180 mmHg were used in the test. […] Blood pressure determinations were made using a plethysmograph (Narco, DE-300). Each drug was sealed in a gelatin capsule and administered by the oral route. The blood pressure was monitored up to 8 hours after administration."}}, "data": [{"smiles": "CC(=O)Oc1ccc(Cn2c(-c3ccccc3)nc(Cl)c2CC(=O)O)cc1C", "note": "[Ref. Example 3, 4-chloro-1-(4-acetoxy-3-methylbenzyl)-2-phenylimidazole-5-acetic acid]", "values": [{"measurement": "Diuretic action UK V", "setting": "[1]", "result": 2.92}, {"measurement": "Diuretic action UNa V", "setting": "[1]", "result": 6.54}, {"measurement": "Diuretic action UV", "setting": "[1]", "result": 8.22}]}, {"smiles": "CCCC(=O)Oc1ccc(Cn2c(-c3ccccc3)nc(Cl)c2CC(=O)O)cc1C", "note": "[Ref. Example 4, 4-chloro-1-(4-n-butyryloxy-3-methylbenzyl)-2-phenylimidazole-5-acetic acid]", "values": [{"measurement": "Diuretic action UK V", "setting": "[1]", "result": 2.80}, {"measurement": "Diuretic action UNa V", "setting": "[1]", "result": 5.82}, {"measurement": "Diuretic action UV", "setting": "[1]", "result": 6.69}]}, {"smiles": "O=C(O)Cc1c(Cl)nc(-c2ccccc2)n1Cc1ccc(O)cc1", "note": "[4-Chloro-1-(4-hydroxybenzyl)-2-phenylimidazole-5-acetic acid, reference compound]", "values": [{"measurement": "Inhibition rate (%)", "setting": "[2]; concentration of drug 10^-5 M", "result": 46, "unit": "%"}]}, {"smiles": "Cc1cc(Cn2c(-c3ccccc3)nc(Cl)c2CC(=O)O)ccc1O", "note": "[Example 1, 4-chloro-1-(4-hydroxy-3-methylbenzyl)-2-phenylimidazole-5-acetic acid]", "values": [{"measurement": "Diuretic action UK V", "setting": "[3]; 3 mg/kg P.O.", "result": 2.20}, {"measurement": "Diuretic action UNa V", "setting": "[3]; 3 mg/kg P.O.", "result": 2.97}, {"measurement": "Diuretic action UV", "setting": "[3]; 3 mg/kg P.O.", "result": 3.41}, {"measurement": "Diuretic action UK V", "setting": "[3]; 30 mg/kg P.O.", "result": 4.88}, {"measurement": "Diuretic action UNa V", "setting": "[3]; 30 mg/kg P.O.", "result": 4.24}, {"measurement": "Diuretic action UV", "setting": "[3]; 30 mg/kg P.O.", "result": 5.11}, {"measurement": "Diastolic blood pressure after 1 hr.", "setting": "[4]", "result": "123 ± 4", "unit": "mmHg"}, {"measurement": "Systolic blood pressure after 1 hr.", "setting": "[4]", "result": "189 ± 5", "unit": "mmHg"}, {"measurement": "Diastolic blood pressure after 2 hrs.", "setting": "[4]", "result": "93 ± 7", "unit": "mmHg"}, {"measurement": "Systolic blood pressure after 2 hrs.", "setting": "[4]", "result": "165 ± 6", "unit": "mmHg"}, {"measurement": "Diastolic blood pressure after 4 hrs.", "setting": "[4]", "result": "89 ± 7", "unit": "mmHg"}, {"measurement": "Systolic blood pressure after 4 hrs.", "setting": "[4]", "result": "155 ± 8", "unit": "mmHg"}, {"measurement": "Diastolic blood pressure after 8 hrs.", "setting": "[4]", "result": "110 ± 8", "unit": "mmHg"}, {"measurement": "Systolic blood pressure after 8 hrs.", "setting": "[4]", "result": "167 ± 8", "unit": "mmHg"}, {"measurement": "Diastolic blood pressure before administration", "setting": "[4]", "result": "124 ± 2", "unit": "mmHg"}, {"measurement": "Systolic blood pressure before administration", "setting": "[4]", "result": "201 ± 5", "unit": "mmHg"}, {"measurement": "Inhibition rate (%)", "setting": "[2]; concentration of drug 10^-5 M", "result": 100, "unit": "%"}, {"measurement": "Inhibition rate (%)", "setting": "[2]; concentration of drug 10^-6 M", "result": 75, "unit": "%"}]}, {"smiles": "COc1ccc(Cn2c(-c3ccccc3)nc(Cl)c2CC(=O)O)cc1C", "note": "[4-Chloro-1-(4-methoxy-3-methylbenzyl)-2-phenylimidazole-5-acetic acid, reference compound]", "values": [{"measurement": "Diuretic action UK V", "setting": "[1]", "result": 3.33}, {"measurement": "Diuretic action UNa V", "setting": "[1]", "result": 6.36}, {"measurement": "Diuretic action UV", "setting": "[1]", "result": 8.25}, {"measurement": "Diuretic action UK V", "setting": "[3]; 3 mg/kg P.O.", "result": 0.86}, {"measurement": "Diuretic action UNa V", "setting": "[3]; 3 mg/kg P.O.", "result": 1.10}, {"measurement": "Diuretic action UV", "setting": "[3]; 3 mg/kg P.O.", "result": 1.20}, {"measurement": "Diuretic action UK V", "setting": "[3]; 30 mg/kg P.O.", "result": 2.53}, {"measurement": "Diuretic action UNa V", "setting": "[3]; 30 mg/kg P.O.", "result": 1.73}, {"measurement": "Diuretic action UV", "setting": "[3]; 30 mg/kg P.O.", "result": 1.67}, {"measurement": "Diastolic blood pressure after 1 hr.", "setting": "[4]", "result": "113 ± 6", "unit": "mmHg"}, {"measurement": "Systolic blood pressure after 1 hr.", "setting": "[4]", "result": "185 ± 5", "unit": "mmHg"}, {"measurement": "Diastolic blood pressure after 2 hrs.", "setting": "[4]", "result": "116 ± 7", "unit": "mmHg"}, {"measurement": "Systolic blood pressure after 2 hrs.", "setting": "[4]", "result": "181 ± 6", "unit": "mmHg"}, {"measurement": "Diastolic blood pressure after 4 hrs.", "setting": "[4]", "result": "115 ± 4", "unit": "mmHg"}, {"measurement": "Systolic blood pressure after 4 hrs.", "setting": "[4]", "result": "181 ± 2", "unit": "mmHg"}, {"measurement": "Diastolic blood pressure after 8 hrs.", "setting": "[4]", "result": "115 ± 5", "unit": "mmHg"}, {"measurement": "Systolic blood pressure after 8 hrs.", "setting": "[4]", "result": "188 ± 5", "unit": "mmHg"}, {"measurement": "Diastolic blood pressure before administration", "setting": "[4]", "result": "123 ± 6", "unit": "mmHg"}, {"measurement": "Systolic blood pressure before administration", "setting": "[4]", "result": "189 ± 2", "unit": "mmHg"}]}]}
